Our source for the MIC values is patent publication US20070213283A1, “Macrolides substituted at the 4"-position” (priority 2003, published 2007).

The structures appear in SMILES notation. Structures can show the parent of a compound that is named as a salt. Where two headings read alike, the source gives them in different places.

Assay in all cases: MIC, standard broth dilution method in microtitre
Format in all cases: cell-based

The test system of one test is E. faecalis ATCC 29212. The note with it: Enterococcus faecalis, ATCC29212. The protocol:
(§1) Using a standard broth dilution method in microtitre, compounds were tested for antibacterial activity. The compounds in the above examples gave minimum inhibitory concentrations (MICs) less than 1 microgram per millilitre against erythromycin-sensitive and erythromycin-resistant strains of Streptococcus pneumoniae and Streptococcus pyogenes.
(§2) In addition, the MIC (μg/mL) of test compounds against various organisms was determined including:
(§3) S. aureus Smith ATCC 13709, S. pneumoniae SP030, S. pyogenes 3565, E. faecalis ATCC 29212, H. influenzae ATCC 49247, M. catarrhalis ATCC 23246.

The test system of the next test is H. influenzae ATCC 49247. The note with it: Haemophilus influenzae, ATCC49247. The protocol: as §1, §2, §3
In test [1] the test system is M. catarrhalis ATCC 23246. The note with it: Moraxella catarrhalis, ATCC23246. The protocol: as §1, §2, §3
The subject of test [2] is S. aureus Smith ATCC 13709. The note with it: Staphylococcus aureus, ATCC13709. The protocol:
as §1, §2, §3

Another test concerns S. pneumoniae SP030. The note with it: Streptococcus pneumoniae. On the procedure: as §1, §2, §3
The next test deals with S. pyogenes 3565. The note with it: Streptococcus pyogenes. The protocol: as §1, §2, §3
Test [3] deals with erythromycin resistant strains of Streptococcus pneumoniae. On the procedure:
as §1

Test [4] deals with erythromycin resistant strains of Streptococcus pyogenes. The protocol: as §1
Setting [5] is: H. influenzae ATCC 49247, broth dilution in microtitre, read-out: MIC.

Take `CC[C@@H]1OC(=O)[C@H](C)[C@H](O[C@@H]2C[C@](C)(OC)[C@H](OC(=O)CCNCCSc3ccc4c(c3)c(=O)c(C(=O)O)cn4CC)[C@H](C)O2)[C@@H](C)[C@H](O[C@@H]2O[C@H](C)C[C@H](N(C)C)[C@@H]2O)[C@](C)(O)C[C@H](C)CN(C)[C@@H](C)[C@@H]2OC(=O)O[C@@]12C` [Example 11, 4″-O-{3-[2-(3-Carboxy-1-ethyl-4-oxo-1,4-dihydro-6-quinolinysulfanyl)ethylamino]propionyl}-azithromycin11,12-carbonate]: the MIC in the test with E. faecalis ATCC 29212 is at most 1 µg/mL; with H. influenzae ATCC 49247 (setting [5]) it was at most 2 µg/mL; in test [1] it was at most 2 µg/mL; in test [2] it was at most 1 µg/mL; in the test with S. pneumoniae SP030, at most 1 µg/mL; against S. pyogenes 3565, at most 1 µg/mL. Moreover, the MIC in test [3] and in test [4] was at most 0.25 µg/mL throughout.

As to `CC[C@H]1OC(=O)[C@H](C)[C@@H](O[C@H]2C[C@@](C)(OC)[C@@H](OC(=O)CCOCCOc3ccc4c(c3)c(=O)c(C(=O)O)cn4C3CC3)[C@H](C)O2)[C@H](C)[C@@H](O[C@@H]2O[C@H](C)C[C@H](N(C)C)[C@@H]2O)[C@](C)(O)C[C@@H](C)CN(C)[C@H](C)[C@@H](O)[C@]1(C)O` [Example 29, 4″-O-{3-[2-(3-Carboxy-1-cyclopropyl-4-oxo-1,4-dihydro-quinolin-6-yloxy)-ethoxy]-propionyl}-azithromycin], the MIC with E. faecalis ATCC 29212 is at most 1 µg/mL; with H. influenzae ATCC 49247 (setting [5]), at most 2 µg/mL; in test [1], at most 2 µg/mL; in test [2], at most 1 µg/mL; against S. pneumoniae SP030 it was at most 1 µg/mL; in the test with S. pyogenes 3565, at most 1 µg/mL. Also, the MIC in test [3] and in test [4] was at most 0.25 µg/mL in each case.

Turning to `CC[C@@H]1OC(=O)[C@H](C)[C@H](O[C@@H]2C[C@](C)(OC)[C@H](OC(=O)CCNCCOc3cc4c5c(c3)c(=O)c(C(=O)O)cn5CCC4)[C@H](C)O2)[C@@H](C)[C@H](O[C@@H]2O[C@H](C)C[C@H](N(C)C)[C@@H]2O)[C@](C)(OC)C[C@H](C)C(=O)[C@H](C)[C@@H](O)[C@]1(C)O` [Example 13, 4′-O-{3-[2-(6-Carboxy-7-oxo-2,3-dihydro-1H,7H-pyrido[3,2,1-ij]quinolin-9-yloxy)ethylamino]propionyl}-6-O-methyl-erythromycin A bis trifluoroacetate salt], the MIC against E. faecalis ATCC 29212 was at most 1 µg/mL; in the test on H. influenzae ATCC 49247, at most 2 µg/mL; in test [1], at most 2 µg/mL; in test [2], at most 1 µg/mL; in the test on S. pneumoniae SP030, at most 1 µg/mL; against S. pyogenes 3565, at most 1 µg/mL. In addition, the MIC in test [3] and in test [4] was at most 0.25 µg/mL each time.
